Results reported in patent US20250206729A1, “DUAL RAF AND TUBULIN INHIBITORS AND METHODS OF USE THEREOF” (Deciphera Pharmaceuticals, LLC, priority 2023, published 2025).
Read-outs that look alike come from different tables or passages of the source.

Legend:
[1] = molecular target: T1, B-Raf kinase (SEQ ID NO: 1) (Homo sapiens, UniProt P15056); experiment: Biochemical assay for B-Raf (coupled pyruvate kinase/lactate dehydrogenase); conditions: 1 mM ATP; read-out: BRAF (inhibition of biochemical activity, IC50)
T1 construct: GST (N); purchased Sigma

[2] = molecular target: T2, C-Raf kinase (SEQ ID NO: 2) (Homo sapiens, UniProt P04049, Y340D/Y341D); experiment: Biochemical assay for C-Raf (coupled pyruvate kinase/lactate dehydrogenase); conditions: 1 mM ATP; read-out: CRAF (inhibition of biochemical activity, IC50)
T2 construct: C-Raf residues 306-end; Y340D, Y341D with N-; GST (N); purchased Sigma

HCT-116 cells = experiment: HCT-116 cell proliferation assay; format: cell-based; conditions: Homo sapiens
Experimental: HCT-116 cells (catalog #CCL-247) are obtained from the American Type Culture Collect (ATCC, Manassas, VA). Briefly, cells are grown in McCoy's 5A supplemented with 10% characterized fetal bovine serum (Invitrogen, Carlsbad, CA) and 1% Penicillin/Streptomycin/L-Glutamine at 37° C., 5% CO2, and 95% humidity. Cells are expanded until reaching 70-95% confluency at which point they are sub-cultured or harvested for assay use. A serial dilution of test compound is dispensed into a 384-well black clear bottom plate in triplicate. 375 cells are added per well in 50 μL complete growth medium in the 384-well plate. Plates are incubated for 67 to 72 h at 37° C., 5% CO2, and 95% humidity. At the end of the incubation, 40 μL of a […] solution of resazurin (Sigma, St. Louis, MO) in PBS is added to each well of the plate and plates are incubated for an additional 4 to 5 h at 37° C., 5% CO2, and 95% humidity. Plates are read on a Synergy2 or equivalent reader (Biotek, Winooski, VT) using an excitation of 540 nm and an emission of 600 nm. Data is analyzed using Prism software (Graphpad, San Diego, CA) to calculate IC50 values.

MiaPaca-2 cells = experiment: MiaPaca-2 cell proliferation assay; format: cell-based; conditions: Homo sapiens, MIA PaCa-2
Experimental: Miapaca-2 cells (catalog #CRL-1420) are obtained from the American Type Culture Collect (ATTC, Manassas, VA). Briefly, cells were grown in DMEM supplemented with 10% characterized fetal bovine serum (Invitrogen, Carlsbad, CA), 2.5% New Zealand sourced horse serum and 1% Penicillin/Streptomycin/L-Glutamine at 37° C., 5% CO2, and 95% humidity. Cells are expanded until reaching 70-95% confluency at which point they are sub-cultured or harvested for assay use. A serial dilution of test compound is dispensed into a 384-well black clear bottom plate in triplicate. Seven hundred fifty cells are added per well in 50 μL complete growth medium in the 384-well plate. Plates are incubated for 67-72 h at 37° C., 5% CO2, and 95% humidity. At the end of the incubation, 10 μL of a 440 μM solution of resazurin (Sigma, St. Louis, MO) in PBS is added to each well of the plate and plates are incubated for an additional 5-6 h at 37° C., 5% CO2, and 95% humidity. Plates are read on a Synergy2 or equivalent reader (Biotek, Winooski VT) using an excitation of 540 nm and an emission of 600 nm. Data is analyzed using Prism software (GraphPad, San Diego, CA) to calculate IC50 values.

Pa16c cells = experiment: Pa16c cell proliferation assay; format: cell-based; conditions: 67 to 72 h incubation, resazurin; read-out: Pa16c (inhibition of cell proliferation, IC50)
Experimental: Pa16c cells are obtained from Dr. Channing Der, University of North Carolina at Chapel Hill. Briefly, cells are grown in Dulbecco's Modified Eagle Medium supplemented with 10% characterized fetal bovine serum (Invitrogen, Carlsbad, CA) and 1% Penicillin/Streptomycin/L-Glutamine at 37° C., 5% CO2, and 95% humidity. Cells are expanded until reaching 70-95% confluency at which point they are sub-cultured or harvested for assay use. A serial dilution of test compound is dispensed into a 384-well black clear bottom plate in triplicate. 750 cells are added per well in 50 μL complete growth medium in the 384-well plate. Plates are incubated for 67 to 72 h at 37° C., 5% CO2, and 95% humidity. At the end of the incubation, 40 μL of a […] solution of resazurin (Sigma, St. Louis, MO) in PBS is added to each well of the plate and plates are incubated for an additional 18 to 24 h at 37° C., 5% CO2, and 95% humidity. Plates are read on a Synergy2 or equivalent reader (Biotek, Winooski, VT) using an excitation of 540 nm and an emission of 600 nm. Data is analyzed using Prism software (Graphpad, San Diego, CA) to calculate IC50 values.

HPAF-II cells = experiment: HPAF-II cell proliferation assay; format: cell-based; conditions: Homo sapiens
Experimental: HPAF-II cells (catalog #CRL-1997) are obtained from the American Type Culture Collect (ATCC, Manassas, VA). Briefly, cells are grown in Minimum Essential Media supplemented with 10% characterized fetal bovine serum (Invitrogen, Carlsbad, CA) and 1% Penicillin/Streptomycin/L-Glutamine at 37° C., 5% CO2, and 95% humidity. Cells are expanded until reaching 70-95% confluency at which point they are sub-cultured or harvested for assay use. A serial dilution of test compound is dispensed into a 384-well black clear bottom plate in triplicate. 750 cells are added per well in 50 μL complete growth medium in the 384-well plate. Plates are incubated for 115 to 120 h at 37° C., 5% CO2, and 95% humidity. At the end of the incubation, 40 μL of a […] solution of resazurin (Sigma, St. Louis, MO) in PBS is added to each well of the plate and plates are incubated for an additional 18 to 24 h at 37° C., 5% CO2, and 95% humidity. Plates are read on a Synergy2 or equivalent reader (Biotek, Winooski, VT) using an excitation of 540 nm and an emission of 600 nm. Data is analyzed using Prism software (Graphpad, San Diego, CA) to calculate IC50 values.

[3] = HCT-116, 67 to 72 h incubation, resazurin, read-out: HCT-116 (inhibition of cell proliferation, IC50)
[4] = 67-72 h incubation, resazurin, read-out: MiaPaca-2 (inhibition of cell proliferation, IC50)
[5] = HPAF-II, 115 to 120 h incubation, resazurin, read-out: HPAF-II (inhibition of cell proliferation, IC50)
[6] = Table 4, mutant KRAS colorectal cancer cell line, anti-proliferative, read-out: HCT-116
[7] = Table 4, mutant KRAS pancreatic cancer cell line, anti-proliferative, read-out: MiaPaca-2

T2 sequence (P04049 307-648 Y340D/Y341D): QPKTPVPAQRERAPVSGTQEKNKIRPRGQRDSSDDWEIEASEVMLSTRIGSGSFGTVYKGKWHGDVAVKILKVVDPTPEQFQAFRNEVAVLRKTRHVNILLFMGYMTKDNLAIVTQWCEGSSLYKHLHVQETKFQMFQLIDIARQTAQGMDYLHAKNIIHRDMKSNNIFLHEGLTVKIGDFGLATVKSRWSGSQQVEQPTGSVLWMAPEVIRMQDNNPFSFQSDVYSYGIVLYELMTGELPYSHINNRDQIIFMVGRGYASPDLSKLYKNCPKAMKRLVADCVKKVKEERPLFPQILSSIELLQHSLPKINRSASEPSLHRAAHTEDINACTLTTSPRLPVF
T1 sequence (P15056 416-766): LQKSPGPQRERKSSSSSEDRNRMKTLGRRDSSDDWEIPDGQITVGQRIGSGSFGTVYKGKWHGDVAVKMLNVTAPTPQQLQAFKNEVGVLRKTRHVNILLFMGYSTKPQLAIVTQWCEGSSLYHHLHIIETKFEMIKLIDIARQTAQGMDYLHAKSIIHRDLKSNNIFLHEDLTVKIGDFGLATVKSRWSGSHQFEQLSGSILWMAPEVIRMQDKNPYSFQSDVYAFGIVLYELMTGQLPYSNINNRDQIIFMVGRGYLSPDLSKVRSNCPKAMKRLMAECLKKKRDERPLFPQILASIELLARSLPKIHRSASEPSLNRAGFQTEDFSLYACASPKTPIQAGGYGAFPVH

IC50 [1] | IC50 [2] | IC50 (HCT-116 cells; [3]) | IC50 (MiaPaca-2 cells; [4]) | SMILES | IC50 (Pa16c cells) | IC50 (HPAF-II cells; [5]) | IC50 (HCT-116 cells; [6]) | IC50 (MiaPaca-2 cells; [7]) | IC50 (HPAF-II cells; Table 4, mutant KRAS pancreatic cancer cell line, anti-proliferative, read-out: HPAF-II)
< 100 nM | < 100 nM | 100 to 500 nM | 100 to 500 nM | Cc1cc(-c2cc(NC(=O)c3cc(C(F)(F)F)cnn3)ccc2C)cc(N2CCOCC2)n1 [Example 4] | < 100 nM | < 100 nM |  |  | 
< 100 nM | < 100 nM | 500 to 1000 nM | 100 to 500 nM | Cc1ccc(NC(=O)c2cncc(Cl)c2)cc1-c1cc(N[C@H](C)CO)nc(N2CCOCC2)c1 [Example 16] | 1000 to 10000 nM | 500 to 1000 nM |  |  | 
1000 to 10000 nM | 1000 to 10000 nM | 500 to 1000 nM | 500 to 1000 nM | Cc1ccc(NC(=O)c2cc(C(F)(F)F)cnn2)cc1-c1cncc(N2CCOCC2)n1 [Example 59] | 100 to 500 nM | 500 to 1000 nM |  |  | 
500 to 1000 nM | 500 to 1000 nM | 100 to 500 nM | 100 to 500 nM | Cc1ccc(NC(=O)c2cc(C(F)(F)F)cnn2)cc1-c1cc(N2CCOCC2)ncn1 [Example 25] | 1000 to 10000 nM | 100 to 500 nM |  |  | 
100 to 500 nM | < 100 nM | 100 to 500 nM | 100 to 500 nM | Cc1ccc(NC(=O)c2cc(C(F)(F)F)cnn2)cc1-c1cccc(N2CCOCC2)c1 [Example 41] | 100 to 500 nM | < 100 nM |  |  | 
< 100 nM | < 100 nM | 100 to 500 nM | 100 to 500 nM | Cc1ccc(NC(=O)c2cc(C3CC3)cnn2)cc1-c1cc(N2CCOCC2)nc(N[C@H](C)CO)n1 [Example 35] | 100 to 500 nM | 100 to 500 nM |  |  | 
1000 to 10000 nM | 1000 to 10000 nM | 1000 to 10000 nM | 1000 to 10000 nM | Cc1ccc(NC(=O)c2cc(C3CC3)cnn2)cc1-c1nccc(N2CCOCC2)n1 [Example 52] | 1000 to 10000 nM | 1000 to 10000 nM |  |  | 
100 to 500 nM | 100 to 500 nM | 100 to 500 nM | 100 to 500 nM | Cc1ccc(NC(=O)c2cc(C3CC3)cnn2)cc1-c1cc(N[C@H](C)CO)nc(N2CCOCC2)n1 [Example 36] | 500 to 1000 nM | 100 to 500 nM |  |  | 
1000 to 10000 nM | 1000 to 10000 nM | 1000 to 10000 nM | 1000 to 10000 nM | Cc1ccc(NC(=O)c2cnc(Br)nc2)cc1-c1cc(N[C@H](C)CO)nc(N2CCOCC2)c1 [Example 69] | 1000 to 10000 nM | 1000 to 10000 nM |  |  | 
100 to 500 nM | < 100 nM | 100 to 500 nM | 500 to 1000 nM | Cc1ccc(NC(=O)c2cc(C(C)C)cnn2)cc1-c1ccnc(N2CCOCC2)c1 [Example 58] | 100 to 500 nM | 100 to 500 nM |  |  | 
500 to 1000 nM | 100 to 500 nM | 100 to 500 nM | 100 to 500 nM | Cc1ccc(NC(=O)c2cc(C(F)(F)F)cnn2)cc1-c1cc(OCCO)nc(N2CCOCC2)n1 [Example 30] | 100 to 500 nM | 100 to 500 nM |  |  | 
100 to 500 nM | 100 to 500 nM | 100 to 500 nM | 100 to 500 nM | Cc1ccc(NC(=O)c2cc(C(F)(F)F)cnn2)cc1-c1ccnc(N2CCOC(C(F)F)C2)c1 (stereo not shown) [Example 26] | 500 to 1000 nM | 100 to 500 nM |  |  | 
1000 to 10000 nM | 1000 to 10000 nM | 1000 to 10000 nM | 1000 to 10000 nM | Cc1ccc(NC(=O)c2cc(Cl)cnn2)cc1-c1cccc(N2CCOCC2)c1 [Example 75] | 1000 to 10000 nM | 1000 to 10000 nM |  |  | 
1000 to 10000 nM | 1000 to 10000 nM | 1000 to 10000 nM | 1000 to 10000 nM | Cc1ccc(NC(=O)c2cc(Cl)cnn2)cc1-c1cncc(N2CCOCC2)c1 [Example 77] | 1000 to 10000 nM | 1000 to 10000 nM |  |  | 
1000 to 10000 nM | 500 to 1000 nM | 500 to 1000 nM | 1000 to 10000 nM | Cc1ccc(NC(=O)c2cc(Cl)cnn2)cc1-c1ccnc(N2CCOCC2)c1 [Example 51] | 1000 to 10000 nM | 500 to 1000 nM |  |  | 
1000 to 10000 nM | 1000 to 10000 nM | 1000 to 10000 nM | 1000 to 10000 nM | Cc1ccc(NC(=O)c2cc(C(F)(F)F)cnn2)cc1-c1nccc(N2CCOCC2)n1 [Example 10] | 1000 to 10000 nM | 1000 to 10000 nM |  |  | 
100 to 500 nM | < 100 nM | 500 to 1000 nM | 500 to 1000 nM | Cc1ccc(NC(=O)c2cnc(C3CC3)nc2)cc1-c1cc(N[C@H](C)CO)nc(N2CCOCC2)c1 [Example 17] | 1000 to 10000 nM | 500 to 1000 nM |  |  | 
100 to 500 nM | < 100 nM | < 100 nM | < 100 nM | CNc1cc(-c2cc(NC(=O)c3cc(C4CC4)cnn3)ccc2C)cc(N2CCOCC2)n1 [Example 60] | < 100 nM | < 100 nM |  |  | 
100 to 500 nM | 100 to 500 nM | 100 to 500 nM | < 100 nM | Cc1ccc(NC(=O)c2cc(C(F)(F)F)cnn2)cc1-c1cc(N[C@H](C)CO)nc(N2CCOCC2)n1 [Example 28] | < 100 nM | < 100 nM |  |  | 
 |  |  |  | CCCS(=O)(=O)Nc1ccc(F)c(C(=O)c2c[nH]c3ncc(-c4ccc(Cl)cc4)cc23)c1F [Vemurafenib, vemurafenib, reference compound] |  |  | 1000 to 10000 nM | 1000 to 10000 nM | 
1000 to 10000 nM | 1000 to 10000 nM | 1000 to 10000 nM | 1000 to 10000 nM | Cc1ccc(NC(=O)c2cc(C(F)(F)F)cnn2)cc1-c1ccnc(N2C[C@@H](C)O[C@@H](C)C2)c1 [Example 84] |  | 1000 to 10000 nM |  |  | 
 |  |  |  | CC(C)(C)c1nc(-c2cccc(NS(=O)(=O)c3c(F)cccc3F)c2F)c(-c2ccnc(N)n2)s1 [Dabrafenib, dabrafenib, reference compound] |  |  | 1000 to 10000 nM | 1000 to 10000 nM | 1000 to 10000 nM
